# In PMC6934184, “Selective DNA-PKcs inhibition extends the therapeutic index of localized radiotherapy and chemotherapy” (The Journal of Clinical Investigation, 2019):
# Target: T1, CHUK (IKK alpha) (Homo sapiens, UniProt O15111)
# T1 construct: purchased Thermo Fisher Scientific (Life Technologies) SelectScreen
# Assay: SelectScreen Adapta
# Format: biochemical
# Method in brief: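 SelectScreen broad panel; activity (Z'LYTE, Adapta) plus binding formats. ATP: Km app for CSF1R Z'LYTE; 10 for CAMK1 Adapta. Readout = % per kinase.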
# T1 sequence (O15111 whole entry): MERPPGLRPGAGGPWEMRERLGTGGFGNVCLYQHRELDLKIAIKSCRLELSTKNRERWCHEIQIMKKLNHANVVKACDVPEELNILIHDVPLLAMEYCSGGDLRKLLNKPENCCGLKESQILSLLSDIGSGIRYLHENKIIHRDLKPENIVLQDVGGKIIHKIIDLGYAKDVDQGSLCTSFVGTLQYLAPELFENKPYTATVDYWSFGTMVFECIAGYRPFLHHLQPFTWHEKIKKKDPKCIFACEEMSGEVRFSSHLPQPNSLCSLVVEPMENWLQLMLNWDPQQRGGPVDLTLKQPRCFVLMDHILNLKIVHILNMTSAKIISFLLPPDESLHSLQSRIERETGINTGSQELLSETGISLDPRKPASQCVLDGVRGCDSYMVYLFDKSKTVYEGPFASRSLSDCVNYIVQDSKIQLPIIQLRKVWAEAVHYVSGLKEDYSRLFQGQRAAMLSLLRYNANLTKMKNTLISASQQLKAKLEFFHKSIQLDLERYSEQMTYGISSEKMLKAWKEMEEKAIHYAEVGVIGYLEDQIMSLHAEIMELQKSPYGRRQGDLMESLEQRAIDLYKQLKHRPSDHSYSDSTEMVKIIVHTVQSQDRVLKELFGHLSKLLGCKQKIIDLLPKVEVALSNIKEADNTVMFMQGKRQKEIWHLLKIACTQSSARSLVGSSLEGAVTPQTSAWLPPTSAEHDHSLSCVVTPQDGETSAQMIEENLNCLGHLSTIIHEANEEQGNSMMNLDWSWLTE
smiles,measurement,value
CN(C(=O)CN1CCOCC1)c1ccc2sc3c(-c4cccc5c(=O)cc(N6CC7CCC(C6)O7)oc45)cccc3c2c1 [NU5455],inhibition at 1 µM,-4.2%
